# Laboratory results: PMC6858497 (The Journal of physiology, 2019)
# Several values for one entry are separate records, joined by “and”; a condition that tells them apart may be missing. Equal values may be shown once.
# Columns and labels:
# [1] = system: NMDAR-EPSCs in hippocampal interneurons (CA1 s.r./s.l.m.); assay: Whole-cell patch-clamp of NMDAR-EPSCs in acute hippocampal slices; assay type: cell-based, mouse; conditions: for NMDAR-EPSC peak amplitude, % of baseline: 10 μM, +40 mV, P21–28 slices
# GluN1–1a/2B = GluN1–1a/2B (Rattus norvegicus, UniProt P35439+Q00960); assay: Two-electrode voltage-clamp recordings, Xenopus oocytes; assay type: cell-based; conditions: for nH (Hill coefficient): inhibition
# [2] = system: NMDAR-EPSCs in hippocampal CA1 pyramidal cells; assay: Whole-cell patch-clamp of NMDAR-EPSCs in acute hippocampal slices; assay type: cell-based, mouse; conditions: for NMDAR-EPSC peak amplitude, % of baseline: 10 μM, +40 mV, P21–28 slices; for effect on EPSC decay time: treatment versus baseline, paired t test, 10 μM (spermine 100 μM)
# GluN1–1a/2BC1/2DC2 = GluN1–1a/2BC1/2DC2 (Rattus norvegicus, UniProt P35439+Q00959+Q00960+Q62645, A876H/F846L/G856D/H848F/K857R/M851T/M860L/Q845K/R869K/V861L/V866F); assay: Two-electrode voltage-clamp recordings, Xenopus oocytes; assay type: cell-based; conditions: for nH (Hill coefficient): inhibition; for Relative Imin: fitted minimal response relative to control
# GluN1–1a/2D = GluN1–1a/2D (Rattus norvegicus, UniProt P35439+Q62645); assay: as above; assay type: cell-based; conditions: for nH (Hill coefficient): inhibition
# [3] = fitted minimal response relative to control, isoform 1a
# [4] = isoform 1a, 300 μM glutamate plus 100 μM glycine
# [5] = Mg2+ block, holding potential −40 mV
# [6] = Mg2+ block, holding potential −60 mV
# [7] = Mg2+ block, holding potential −80 mV
# [8] = Mg2+ block, holding potential −100 mV
# [9] = Woodhull model, current-voltage relationship with 0.1 mM Mg2+
# [10] = IC50, channel block, −20 mV, + 1 mM Mg2+
# [11] = IC50, channel block, −20 mV, control (absence of Mg2+)
# [12] = IC50, channel block, −40 mV, + 1 mM Mg2+
# [13] = IC50, channel block, −40 mV, control (absence of Mg2+)
# [14] = IC50, channel block, −60 mV, + 1 mM Mg2+
# [15] = IC50, channel block, −60 mV, control (absence of Mg2+)
# [16] = channel block, −20 mV, + 1 mM Mg2+
# [17] = channel block, −20 mV, control (absence of Mg2+)
# [18] = channel block, −40 mV, + 1 mM Mg2+
# [19] = channel block, −40 mV, control (absence of Mg2+)
# [20] = channel block, −60 mV, + 1 mM Mg2+
# [21] = channel block, −60 mV, control (absence of Mg2+)
# Chain of GluN1–1a/2D (Q62645 28-1323, other chains not shown): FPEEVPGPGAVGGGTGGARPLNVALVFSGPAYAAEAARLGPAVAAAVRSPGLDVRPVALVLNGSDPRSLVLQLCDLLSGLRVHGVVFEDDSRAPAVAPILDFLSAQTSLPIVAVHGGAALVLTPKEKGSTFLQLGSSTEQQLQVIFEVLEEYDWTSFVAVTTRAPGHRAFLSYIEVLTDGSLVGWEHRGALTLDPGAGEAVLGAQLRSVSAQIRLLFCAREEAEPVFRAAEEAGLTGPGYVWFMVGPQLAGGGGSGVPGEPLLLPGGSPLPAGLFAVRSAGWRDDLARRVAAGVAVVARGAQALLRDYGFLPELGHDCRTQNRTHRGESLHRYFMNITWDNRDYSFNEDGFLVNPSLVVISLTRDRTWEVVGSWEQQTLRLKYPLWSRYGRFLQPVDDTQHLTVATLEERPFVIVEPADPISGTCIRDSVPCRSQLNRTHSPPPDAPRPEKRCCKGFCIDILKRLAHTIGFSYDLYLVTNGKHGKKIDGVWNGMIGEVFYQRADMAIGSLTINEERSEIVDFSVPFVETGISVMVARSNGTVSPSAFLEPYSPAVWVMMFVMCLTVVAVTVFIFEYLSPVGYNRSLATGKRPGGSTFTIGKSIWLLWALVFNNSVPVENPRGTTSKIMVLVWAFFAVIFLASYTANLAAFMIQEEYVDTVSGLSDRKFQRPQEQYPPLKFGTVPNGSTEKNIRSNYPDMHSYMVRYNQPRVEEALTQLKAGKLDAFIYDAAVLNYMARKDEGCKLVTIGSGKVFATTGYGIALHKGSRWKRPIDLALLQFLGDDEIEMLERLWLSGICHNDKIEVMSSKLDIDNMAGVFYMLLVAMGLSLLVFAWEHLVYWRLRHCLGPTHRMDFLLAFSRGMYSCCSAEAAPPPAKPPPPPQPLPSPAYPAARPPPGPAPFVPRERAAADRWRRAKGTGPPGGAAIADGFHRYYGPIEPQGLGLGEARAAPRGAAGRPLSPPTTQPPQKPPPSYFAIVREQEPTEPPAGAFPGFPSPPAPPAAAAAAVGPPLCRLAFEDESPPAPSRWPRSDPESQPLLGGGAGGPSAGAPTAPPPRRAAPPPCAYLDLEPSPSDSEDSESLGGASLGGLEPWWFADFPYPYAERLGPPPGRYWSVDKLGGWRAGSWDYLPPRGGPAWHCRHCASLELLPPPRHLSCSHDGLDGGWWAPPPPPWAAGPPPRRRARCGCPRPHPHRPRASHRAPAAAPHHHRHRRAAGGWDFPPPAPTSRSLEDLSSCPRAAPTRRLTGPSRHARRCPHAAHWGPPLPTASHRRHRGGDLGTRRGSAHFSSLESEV
# Chain of GluN1–1a/2B (Q00960 27-1482, other chains not shown): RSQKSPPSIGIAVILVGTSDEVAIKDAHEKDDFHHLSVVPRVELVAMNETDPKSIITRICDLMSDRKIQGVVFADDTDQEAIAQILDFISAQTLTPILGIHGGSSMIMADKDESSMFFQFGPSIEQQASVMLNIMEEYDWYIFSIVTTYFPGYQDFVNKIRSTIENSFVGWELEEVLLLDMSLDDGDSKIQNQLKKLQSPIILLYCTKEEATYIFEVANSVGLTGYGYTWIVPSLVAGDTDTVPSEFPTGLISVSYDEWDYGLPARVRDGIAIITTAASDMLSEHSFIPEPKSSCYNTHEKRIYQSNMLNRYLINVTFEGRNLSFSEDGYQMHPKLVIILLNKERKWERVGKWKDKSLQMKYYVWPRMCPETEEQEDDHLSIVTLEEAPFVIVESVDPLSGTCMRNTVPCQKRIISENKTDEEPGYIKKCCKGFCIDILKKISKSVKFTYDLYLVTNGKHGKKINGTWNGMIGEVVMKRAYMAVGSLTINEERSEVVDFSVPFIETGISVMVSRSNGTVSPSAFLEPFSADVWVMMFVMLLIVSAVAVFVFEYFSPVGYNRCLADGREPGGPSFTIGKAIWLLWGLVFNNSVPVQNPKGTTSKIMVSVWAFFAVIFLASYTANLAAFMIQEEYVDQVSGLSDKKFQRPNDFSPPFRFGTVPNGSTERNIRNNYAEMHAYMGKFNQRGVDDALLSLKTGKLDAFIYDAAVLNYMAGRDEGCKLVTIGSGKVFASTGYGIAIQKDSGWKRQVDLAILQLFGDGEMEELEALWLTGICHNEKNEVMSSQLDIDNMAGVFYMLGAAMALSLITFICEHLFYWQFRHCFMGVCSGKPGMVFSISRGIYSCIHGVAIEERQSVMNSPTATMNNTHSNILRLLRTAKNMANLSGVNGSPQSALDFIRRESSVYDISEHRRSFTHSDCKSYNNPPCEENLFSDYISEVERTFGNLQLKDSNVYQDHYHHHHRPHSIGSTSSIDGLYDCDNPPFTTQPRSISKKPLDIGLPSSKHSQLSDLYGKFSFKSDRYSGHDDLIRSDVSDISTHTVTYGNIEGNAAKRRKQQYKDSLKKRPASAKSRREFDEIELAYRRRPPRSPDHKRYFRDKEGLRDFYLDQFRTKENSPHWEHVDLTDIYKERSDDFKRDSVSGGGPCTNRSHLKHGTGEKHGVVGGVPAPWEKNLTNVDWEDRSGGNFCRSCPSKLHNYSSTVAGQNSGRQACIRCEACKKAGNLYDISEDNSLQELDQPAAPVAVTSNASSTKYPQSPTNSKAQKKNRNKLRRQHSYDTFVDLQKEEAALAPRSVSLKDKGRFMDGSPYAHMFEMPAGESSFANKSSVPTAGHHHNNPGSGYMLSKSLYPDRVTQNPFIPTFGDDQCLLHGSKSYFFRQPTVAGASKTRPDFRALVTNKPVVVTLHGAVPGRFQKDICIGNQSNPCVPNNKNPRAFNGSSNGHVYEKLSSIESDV
structure (smiles),measurement,setting,value
"C[C@@H]([C@@H](O)c1ccc(O)cc1)N1CCC(O)(c2ccccc2)CC1 [CP-101,606]","NMDAR-EPSC peak amplitude, % of baseline",[1],30 ± 3 % of baseline
same,effect on EPSC decay time,"[1]; treatment versus baseline, paired t test, 10 μM (spermine 100 μM)",unchanged
same,nH (Hill coefficient),GluN1–1a/2B; isoform 1a,1.4
same,maximal inhibition,GluN1–1a/2B; isoform 1a,~ 95%
same,"NMDAR-EPSC peak amplitude, % of baseline",[2],50 ± 3 % of baseline
same,effect on EPSC decay time,[2],significantly accelerated
same,nH (Hill coefficient),GluN1–1a/2BC1/2DC2; isoform 1a,1.4
same,maximal inhibition,GluN1–1a/2BC1/2DC2; isoform 1a,~ 65%
Cc1ccc2[nH]c(=O)c(C3=NN(C(=O)CCC(=O)O)C(c4ccc(Br)cc4)C3)c(-c3ccccc3)c2c1 (centres unmarked) [DQP-1105],Relative Imin,"GluN1–1a/2B; at 30 μM, isoform 1a",58 ± 2%
same,Relative Imin,GluN1–1a/2D; [3],−3 ± 1%
same,nH (Hill coefficient),GluN1–1a/2D; isoform 1a,1.0
same,maximal inhibition,GluN1–1a/2D; isoform 1a,~ 100%
same,IC50,GluN1–1a/2D; [4],2.2 ± 0.1 µM
same,Relative Imin,GluN1–1a/2BC1/2DC2; isoform 1a,−8 ± 2 %
same,nH (Hill coefficient),GluN1–1a/2BC1/2DC2; isoform 1a,0.8
same,maximal inhibition,GluN1–1a/2BC1/2DC2; isoform 1a,~ 100%
same,IC50,GluN1–1a/2BC1/2DC2; [4],13 ± 1 µM
Cc1nccn1Cc1cc(-c2ccc(F)c(C(F)F)c2)cnn1.Cl.Cl [EVT-101],Relative Imin,GluN1–1a/2B; [3],3 ± 1%
same,nH (Hill coefficient),GluN1–1a/2B; isoform 1a,1.0
same,maximal inhibition,GluN1–1a/2B; isoform 1a,~ 95%
same,IC50,GluN1–1a/2B; [4],0.009 ± 0.001 µM
same,Relative Imin,"GluN1–1a/2D; at 3 μM, isoform 1a",92 ± 2%
same,Relative Imin,GluN1–1a/2BC1/2DC2; isoform 1a,37 ± 2 %
same,nH (Hill coefficient),GluN1–1a/2BC1/2DC2; isoform 1a,1.1
same,maximal inhibition,GluN1–1a/2BC1/2DC2; isoform 1a,~ 65%
same,IC50,GluN1–1a/2BC1/2DC2; [4],0.012 ± 0.001 µM
Cc1ncc(CNC(=O)c2cnc(CNS(=O)(=O)c3ccc(F)c(Cl)c3)cn2)s1 [MPX-004],"NMDAR-EPSC peak amplitude, % of baseline",[1],98 ± 5 % of baseline
same,"NMDAR-EPSC peak amplitude, % of baseline",[2],45 ± 2 % of baseline
same,effect on EPSC decay time,[2],significantly slowed
[Mg+2] [Mg^2+],IC50,GluN1–1a/2B; [5],161 ± 11.8 µM
same,nH,GluN1–1a/2B; [5],0.9
same,IC50,GluN1–1a/2B; [6],26 µM and 25.5 µM
same,nH,GluN1–1a/2B; [6],1.0
same,IC50,GluN1–1a/2B; [7],5.5 ± 0.4 µM
same,nH,GluN1–1a/2B; [7],1.0
same,IC50,GluN1–1a/2B; [8],1.6 ± 0.3 µM
same,nH,GluN1–1a/2B; [8],0.9
same,"δ, fraction of the membrane electric field sensed by the blocking site","GluN1–1a/2B; Woodhull model, 0.1 mM Mg2+",1.08
same,"K0.5(0 mV), Mg2+ concentration producing half-maximal block at 0 mV",GluN1–1a/2B; [9],4.5 mM
same,IC50,GluN1–1a/2D; [5],937 ± 85.9 µM
same,nH,GluN1–1a/2D; [5],1.0
same,IC50,GluN1–1a/2D; [6],254 µM
same,nH,GluN1–1a/2D; [6],1.0
same,IC50,GluN1–1a/2D; [7],72.5 ± 1.8 µM
same,nH,GluN1–1a/2D; [7],1.0
same,IC50,GluN1–1a/2D; [8],25.1 ± 0.4 µM
same,nH,GluN1–1a/2D; [8],1.0
same,"δ, fraction of the membrane electric field sensed by the blocking site","GluN1–1a/2D; Woodhull model, 0.1 mM Mg2+",0.82
same,"K0.5(0 mV), Mg2+ concentration producing half-maximal block at 0 mV",GluN1–1a/2D; [9],11 mM
same,IC50,GluN1–1a/2BC1/2DC2; [5],518 ± 14.3 µM
same,nH,GluN1–1a/2BC1/2DC2; [5],0.8
same,IC50,GluN1–1a/2BC1/2DC2; [6],80 µM and 79.2 µM
same,nH,GluN1–1a/2BC1/2DC2; [6],0.9
same,IC50,GluN1–1a/2BC1/2DC2; [7],19.9 ± 0.8 µM
same,nH,GluN1–1a/2BC1/2DC2; [7],0.9
same,IC50,GluN1–1a/2BC1/2DC2; [8],6.8 ± 0.5 µM
same,nH,GluN1–1a/2BC1/2DC2; [8],0.9
same,"δ, fraction of the membrane electric field sensed by the blocking site","GluN1–1a/2BC1/2DC2; Woodhull model, 0.1 mM Mg2+",0.95
same,"K0.5(0 mV), Mg2+ concentration producing half-maximal block at 0 mV",GluN1–1a/2BC1/2DC2; [9],6.6 mM
COc1ccc2nc(/C=C/c3cccc([N+](=O)[O-])c3)n(-c3ccc(C(=O)O)cc3)c(=O)c2c1 [QNZ-46],Relative Imin,"GluN1–1a/2B; at 30 μM, isoform 1a",76 ± 1%
same,Relative Imin,GluN1–1a/2D; [3],−3 ± 1%
same,nH (Hill coefficient),GluN1–1a/2D; isoform 1a,1.0
same,maximal inhibition,GluN1–1a/2D; isoform 1a,~ 100%
same,IC50,GluN1–1a/2D; [4],2.7 ± 0.1 µM
same,Relative Imin,GluN1–1a/2BC1/2DC2; isoform 1a,4 ± 1 %
same,nH (Hill coefficient),GluN1–1a/2BC1/2DC2; isoform 1a,1.0
same,maximal inhibition,GluN1–1a/2BC1/2DC2; isoform 1a,~ 100%
same,IC50,GluN1–1a/2BC1/2DC2; [4],10 ± 1 µM
CNC1(c2ccccc2Cl)CCCCC1=O (centres unmarked) [ketamine],IC50,GluN1–1a/2B; [10],16.3 ± 1.9 µM
same,IC50,GluN1–1a/2B; [11],4.2 ± 0.7 µM
same,IC50,GluN1–1a/2B; [12],19.2 ± 2 µM
same,IC50,GluN1–1a/2B; [13],2.1 ± 0.3 µM
same,IC50,GluN1–1a/2B; [14],17 ± 2 µM
same,IC50,GluN1–1a/2B; [15],1 ± 0.1 µM
same,nH,GluN1–1a/2B; [16],1.2
same,nH,GluN1–1a/2B; [17],1.0
same,nH,GluN1–1a/2B; [18],1.3
same,nH,GluN1–1a/2B; [19],1.0
same,nH,GluN1–1a/2B; [20],1.1
same,nH,GluN1–1a/2B; [21],1.0
same,IC50,GluN1–1a/2D; [10],4.5 ± 0.5 µM
same,IC50,GluN1–1a/2D; [11],3.8 ± 0.2 µM
same,IC50,GluN1–1a/2D; [12],3.5 ± 0.5 µM
same,IC50,GluN1–1a/2D; [13],2.4 ± 0.2 µM
same,IC50,GluN1–1a/2D; [14],2.6 ± 0.4 µM
same,IC50,GluN1–1a/2D; [15],1.3 ± 0.1 µM
same,nH,GluN1–1a/2D; [16],1.0
same,nH,GluN1–1a/2D; [17],1.0
same,nH,GluN1–1a/2D; [18],1.0
same,nH,GluN1–1a/2D; [19],1.0
same,nH,GluN1–1a/2D; [20],1.1
same,nH,GluN1–1a/2D; [21],1.0
CC12CC3CC(C)(C1)CC(N)(C3)C2 [memantine],nH,GluN1–1a/2B; [16],1.1
same,nH,GluN1–1a/2B; [17],0.9
same,nH,GluN1–1a/2B; [18],1.0
same,nH,GluN1–1a/2B; [19],1.0
same,nH,GluN1–1a/2B; [20],1.1
same,nH,GluN1–1a/2B; [21],1.0
same,nH,GluN1–1a/2D; [16],1.0
same,nH,GluN1–1a/2D; [17],1.1
same,nH,GluN1–1a/2D; [18],1.0
same,nH,GluN1–1a/2D; [19],1.1
same,nH,GluN1–1a/2D; [20],1.0
same,nH,GluN1–1a/2D; [21],1.1
same,nH,GluN1–1a/2BC1/2DC2; [16],1.0
same,nH,GluN1–1a/2BC1/2DC2; [17],1.1
same,nH,GluN1–1a/2BC1/2DC2; [18],0.9
same,nH,GluN1–1a/2BC1/2DC2; [19],1.0
same,nH,GluN1–1a/2BC1/2DC2; [20],0.9
same,nH,GluN1–1a/2BC1/2DC2; [21],1.0
